Measured values taken from patent publication US6429204B1, “Method of inhibiting cancer growth” (University of Miami, priority 1997, dated 2002).
≈ marks a conversion by molar mass, not a printed value.

How the values were obtained:
BPH-1 = assay: Cytotoxicity GI50 (MTT and thymidine incorporation), BPH-1; format: cell-based; settings: Homo sapiens
Procedure: (§1) To confirm this observation, we compared the cytotoxicities of CMT-3 and doxycycline for a panel of common human prostate cancer cell lines. Cytotoxicity was measured using the MTT assay (see above) and a cellular thymidine incorporation assay as described by Lokeshwar et al. (1995a). The 50% growth inhibition (GI50) values obtained using both assays were identical. As shown in the data summarized in Table 3, below, CMT-3 was two- to eight-fold more cytotoxic than doxycycline.
(§2) Growth inhibition was calculated from linear regression of the dose-response curves generated for each experiment using log(dose) vs. cell proliferation (% of control). Correlation coefficient (r) was always ≧0.95 (negative). Results are presented as Mean±SEM of at least three GI50 values calculated from each experiment.

LNCAP cells = assay: Alamar Blue viability assay, LNCAP; format: cell-based, human
Excerpt: (§3) Several cancer cell lines and normal cells were examined in vitro to determine whether tetracycline compounds produce cytotoxic (cell killing) effects. A conventional assay for viability of cultured cells based on redox activity in the cells was employed (Pagé et al. 1993). The assay uses a redox dye Alamar Blue, which is a fluorogenic indicator dye that is converted to a fluorescent red product only when cells are carrying out electron transport activity, a widely accepted criterion of viability.
(§4) Cultured cells from three prostate tumor cell lines, LNCAP, DU-145, and PC-3, and normal prostate stromal cells obtained by biopsy of a normal person, were allowed to grow to confluence in multiwell microplates to minimize differences in proliferative activity among the cell types at the time of exposure to the test compound. CMT-3 was added to the wells at concentrations of 10 μM and 20 μM (50 μM also in the case of DU-145). At the start of the experiment, and again at 1, 2, and 3 days, selected wells were incubated with the indicator dye for 3 hr, and the fluorescence was measured on a Cytofluor 2300 fluorescent microplate reader.

[1] = system: normal prostate stromal cells; assay: Alamar Blue viability assay, normal prostate stromal cells; format: cell-based, human
Excerpt: as §3
as §4, with “CMT-3 was added to the wells at concentrations of 10 μM and 20 μM (50 μM also in the case of DU-145).” left out

Dunning MAT LyLu tumor = assay: MAT LyLu tumor growth and lung metastasis, gavage from day of implant; format: in vivo, Copenhagen rats
Procedure: Tumor Generation and Treatment: Dunning MAT LyLu cells were harvested from culture flasks, and a 0.5 mL suspension containing from 2×10^5 to 2×10^6 cells/mL was inoculated into the dorsal flank of adult Copenhagen rats (Harlan Sprague Dawley, Indianapolis, Ind.). The rats weighed 250-300 g, and were 90-100 days old. Tumors were detected by palpating the skin around the site of injection starting 3 days following implant of the tumor cells (Lokeshwar et al. 1995a).
Drug Treatment In Vivo: Doxycycline and CMT-3 were dissolved in a 2% aqueous solution of a soluble form of carboxymethyl cellulose (Sigma Cat. No. C-5678), and a fresh solution was made up daily. Rats were gavaged daily with 1 mL of the drug solution (concentrations specified below), or the vehicle (2% carboxymethyl cellulose). Tumor growth was recorded three times a week, and rats were weighed weekly. The effect of various treatments on tumor growth was monitored over time using calipers, and the volume approximated to an ellipsoid (i.e., volume=length×width×height×0.5236) (Lokeshwar et al. 1993b). Tumor growth rate was determined by regression analysis of tumor volume versus time, for each tumor-bearing rat. Mean tumor growth rate (time to reach a fixed volume) for each treatment group was then used to evaluate the statistical significance of treatment efficacy using the INSTAT statistical program (Ravitz Software, San Diego, Calif.). Rats were euthanized once the tumor volume reached ≧10 cm^3. At that time animals were necropsied, tumors and lungs were removed and fixed in Bouin's fixative. Macroscopic tumor foci on the lungs were counted under a dissecting microscope.
CMT-3 and doxycycline were tested for antitumor activity in vivo. In this series of experiments, daily gavage of drugs was started on the same day on which tumor cells were implanted in the test animals. Tumor growth was initiated by sub cutis injection of 1×10^6 tumor cells.

MAT LyLu = assay: Cytotoxicity GI50 (MTT and thymidine incorporation), MAT LyLu; format: cell-based; settings: Rattus norvegicus
Procedure: as §1, §2

Serum half-life = format: in vivo
[2] = MTS cytotoxicity assay, COLO 205; settings: human, COLO 205 colon carcinoma cells, percent cytotoxicity, two days
Procedure: A panel of chemically modified tetracycline compounds and doxycycline were tested for cytotoxicity against two carcinomas: COLO 205 (a human colon carcinoma-derived cell line) and the E-10 clone of MDA-MB-231 (a human breast carcinoma-derived cell line). Cytoxicity was measured using a conventional assay for viability with a tetrazolium salt (MTS). Cells were grown in media containing the CMTs at concentrations ranging from 5 μM to 100 μM for two days. The cells were then incubated with the MTS for several hours before removal of the supernatant medium for determination of formazan, which is generated only by the viable cells. Results are expressed as percent cytotoxicity, which is simply the percent decline in measured formazan concentration in the sampled medium.

prostate cancer cells = assay: Invasive potential of prostate cancer cells in vitro (summary); format: cell-based; settings: 5 μg/mL
TSU-PR1 cells = assay: Matrigel invasion assay (Boyden chamber, MTT), TSU-PR1; format: cell-based, human; settings: Homo sapiens; for IC50: TSU-PR1, 48 hr, read-out: 50% inhibitory dose (IC50), Matrigel invasion
Procedure: In this method, 4×10^5 tumor cells were plated on the top chamber of the Boyden chemotaxis assay chambers (Costar Transwell plates). The bottom side of the chamber was a 12 μm-pore polycarbonate filter layered with 0.5 mm thick layer of Matrigel. The bottom well contained a chemoattractant, a serum-free culture-conditioned medium from FHS 733 cells, a line of human fetal lung fibroblasts (ATCC No. HTB-157). Cancer cells (4×10^5) were plated in the top wells of the plates. Doxycycline or CMTs were diluted in a serum-free medium to 5 μg/mL, and were added to both top and bottom chambers. […] After 48 hr incubation, MTT was added to both the top and bottom wells (0.5 mg/mL), and incubation was continued for 4 hr. Wells were then emptied, and the cells from the undersides of the filter were pooled with those in the bottom wells with a filter tip. The reduced MTT (formazan) from top and bottom wells was solubilized with DMSO overnight, and absorbance (O.D.) at 515 nm was measured. The ratio of the O.D. from the bottom wells to that of the total (i.e., O.D. of top plus bottom wells) was taken as the invasive potential. […] The MTT assay procedure also normalizes the coincident inhibition due to the cytotoxic effects of the agents under investigation. Results presented are from three independent experiments.

[3] = 40 mg/kg daily oral gavage from day of implant

Row | Structure (SMILES) | GI50 (BPH-1) [µM] | metastatic tumor foci in lungs (Dunning MAT LyLu tumor; [3]) [MTF/rat] | GI50 (MAT LyLu) [µM] | cytotoxicity at 2 days, 5 µM [2] [%] | cytotoxicity at 2 days, 10 µM [2] [%] | cytotoxicity at 2 days, 20 µM [2] [%] | cytotoxicity at 2 days, 50 µM [2] [%] | cytotoxicity at 2 days, 100 µM [2] [%] | IC50 (TSU-PR1 cells) [µg/mL] | other results
1 | NC(=O)C1=C(O)CC2CC3Cc4cccc(O)c4C(=O)C3=C(O)C2(O)C1=O (stereo not drawn) [CMT-3, 6-demethyl-6-deoxy-4-de(dimethylamino)tetracycline] | 10.5 ± 3.7 | 28.9±15.4 | 5.2 ± 1.9 | 17 | 28.8 | 52 | 79 | 85.6 | 1.7 ± 0.31 (≈ 4.58 µM) | cytotoxicity (LNCAP cells; 10 μM, 24 hr): nearly complete; time to complete cytotoxicity (LNCAP cells; 20 μM): ≤ 24 h; change in fluorescence (viability) ([1]; 10 μM and 20 μM, three-day period): virtually no change in fluorescence; cytotoxicity ([1]; 50 µM): no comparable cytotoxicity; primary tumor growth versus control group (regression analysis of tumor volumes) (Dunning MAT LyLu tumor; 20 mg/kg or 40 mg/kg): no significant difference; reduction in MTF relative to the control group (Dunning MAT LyLu tumor; 40 mg/kg (10 mg/rat)): 51%; time from injection of cells to 3 cm^3 tumor (Dunning MAT LyLu tumor; control 13.57±2.12 days): 14.0 ± 1.9 days; number of lung metastases (Dunning MAT LyLu tumor; oral gavage daily for 21 days following implant, controls 59.5±13.9): 28.9±15.4 sites/animal; half-life (Serum half-life): ~28 h; inhibition at 5 µg/mL (prostate cancer cells): 90%
2 | C[C@H]1c2cccc(O)c2C(=O)C2=C(O)[C@]3(O)C(=O)C(C(N)=O)=C(O)[C@@H](N(C)C)[C@@H]3[C@@H](O)[C@@H]21 [Doxycycline, 6α-deoxy-5-hydroxy-tetracycline, reference compound] | 21.3 ± 5.4 | 43.6±18.8 | 20 ± 6.4 | 0 | 0 | 45.7 | 58.8 | 66.5 | 27 ± 4.3 (≈ 60.8 µM) | metastatic tumor foci in lungs (Dunning MAT LyLu tumor; 20 mg/kg daily oral gavage from day of implant): 39.7±17.2 MTF/rat; inhibition at 5 µg/mL (TSU-PR1 cells; TSU-PR1, 5 μg/mL, 48 hr): 8 ± 1.8%
